# Results published in US9399028B2, “Treatment of drug resistant cancer” (ROCKEFELLER UNIVERSITY (THE), priority 2012, dated 2016).
# Where a name gives a salt, the structure may show the parent alone.
# What was measured:
# [1] = system: human melanoma cells (MeWo, MeWo-LM2, HT-144, SK-Mel-2, SK-Mel-334.2); experiment: Trans-well matrigel cell invasion assay, melanoma cells; assay type: cell-based
# Method: Cancer cells were serum-starved in 0.2% FBS DMEM-based media for 12 hours. Trans-well invasion chambers (354480, BD Biosciences, Bedford, Mass.) were pre-equilibrated prior to beginning the assay by adding 0.5 mL of starvation media to the top and bottom chambers. After 30 minutes, the media in the top chamber was removed, and 0.5 mL of media containing 1×10^5 cancer cells was added into each matrigel-coated trans-well insert and incubated at 37° C. for 24 hours. For neutralization antibody and/or recombinant protein experiments, antibody/recombinant protein was added to each well at the start of the assay at the following concentrations as indicated in the figures: 5-40 μg/mL anti-ApoE 1D7 (Heart Institute, University of Ottawa), 5-40 μg/mL anti-IgG (AB-108-C, R&D Systems, Minneapolis, Minn.), 100 μM recombinant human ApoE3 (4696, BioVision, Mountain View, Calif.), and 100 μM BSA (A2153, Sigma-Aldrich). Upon completion of the assay, matrigel-coated inserts were washed with PBS, the cells at the top side of each insert were scraped off, and the inserts were fixed in 4% paraformaldehyde for 15 minutes. The inserts were then cut out and mounted onto slides using VectaShield mounting medium containing DAPI (H-1000, Vector Laboratories, Burlingame, Calif.). The basal side of each insert was imaged using an inverted fluorescence microscope (Zeiss Axiovert 40 CFL) at 5× magnification, taking three representative images for each insert. The number of invaded cells was quantified using ImageJ (NIH).
# The cell invasion assay was performed as previously described in detail (Pencheva et al., 2012) using a trans-well matrigel invasion chamber system (354480, BD Biosciences). In brief, various melanoma cells were cultured in the presence of DMSO, GW3965, T0901317, or Bexarotene at 1 μM for 56 hours, after which melanoma cells were switched to starvation media (0.2% FBS) for 16 hours in the presence of each drug. Following starvation, cells were seeded into matrigel-coated trans-well inserts, and the invasion assay was allowed to proceed for 24 hours at 37° C. For ApoE antibody neutralization experiments, 40 μg/mL 1D7 anti-ApoE blocking antibody (Heart Institute, University of Ottawa, Ottawa, Canada) or 40p, g/mL anti-IgG control antibody (AB-108-C, R&D Systems, Minneapolis, Minn.) was added to each trans-well insert at the start of the assay.
# The cells were then serum starved for 16 hours in 0.2% FBS media in the presence of each corresponding drug or DMSO. […] Meanwhile, cancer cells were trypsinized and viable cells were counted using trypan blue. […] The basal side of each insert was imaged using an inverted fluorescence microscope (Zeiss Axiovert 40 CFL) at 5× magnification, and the number of DAPI-positive cells was quantified using ImageJ.
# [2] = system: human melanoma cells (MeWo, MeWo-LM2, A375-LM3, HT-144, SK-Mel-334.2); experiment: Tail-vein lung metastatic colonization assay, bioluminescence imaging; assay type: in vivo
# Method: After 8 hours, the transfection media was replaced with fresh media. After 48 hours, 1×10^5 cells were injected intravenously into NOD-SCID mice to assess lung metastatic colonization or through intracardiac injection into athymic nude mice to assess systemic metastasis. For cell invasion and endothelial recruitment in vitro assays, the cells were used 96 hours post-transfection.
# Melanoma cells used for in vivo metastasis assays were transduced with a stably expressed retroviral construct encoding a luciferase reporter gene (Ponomarev et al., 2004), allowing us to monitor the in vivo progression of melanoma cells by bioluminescence imaging. The following numbers of melanoma cells, resuspended in 100 μL, of PBS, were injected intravenously via the tail-vein: 4×10^4 MeWo cells, 2.5×10^5 HT-144 cells, 2×10^5 SK-Mel-334.2 cells, 5×10^4B16F10 cells, and 1×10^5 YUMM cells. The MeWo, HT-144, and SK-Mel-334.2 cells were injected into 6-8 week-old sex-matched NOD scid mice, while the B16F10 and YUMM cells were injected into 6-8 week-old sex-matched C57BL/6 mice. In all experiments assessing at the effects of GW3965 on metastasis formation, mice were pre-treated on a control diet or a GW3965-supplemented diet (20 mg/kg) for 10 days. To assess the effect of GW3965 treatment on brain metastasis, 1×10^5 MeWo brain-metastatic derivatives were injected intracardially into athymic nude mice. Immediately following injection, mice were randomly assigned to a control diet or GW3965-supplemented diet (100 mg/kg). To determine whether oral delivery of GW3965 can inhibit the progression of incipient metastasis, NOD Scid mice were intravenously injected with 4×10^4 MeWo cells and the cells were allowed to colonize the lungs for 42 days, after which mice were blindedly assigned to a control diet or a GW3965-supplemented diet (100 mg/kg) treatment.
molecule,measurement,setting,value
"O=C(O)Cc1cccc(OCCCN(Cc2cccc(C(F)(F)F)c2Cl)CC(c2ccccc2)c2ccccc2)c1 [GW3965 2, 3-[3-[N-(2-Chloro-3-trifluoromethylbenzyl)-(2,2-diphenylethyl)amino]propyloxy]phenylacetic acid hydrochloride]",tumor cell invasion,[1]; parental MeWo cells pre-treated 48 hours,decreased
same,reduction in metastatic colonization capacity,[2]; MeWo cells pre-treated at 1 μM for 48 hours before injection,more than 50 fold
same,reduction in lung metastatic colonization,"[2]; MeWo cells, oral in chow 20 mg/kg from 10 days before injection",31 fold
same,survival times following metastatic colonization,"[2]; MeWo, chow 20 mg/kg",significantly prolonged
same,suppression of colonization by incipient lung metastases,"[2]; MeWo, diet 100 mg/kg from d42",28 fold
same,number of macroscopic metastatic nodules formed,"[2]; MeWo, diet 100 mg/kg from d42, lungs at d77",decreased
same,metastatic colonization by HT-144 and SK-Mel-334.2,[2]; oral in diet,suppressed
same,"in vivo melanoma metastasis (lung, bioluminescence)","[2]; parental MeWo cells, chow diet 20 mg/kg",significant reduction
"recombinant human ApoE3: recombinant human ApoE3 (4696, BioVision)",invasion by metastatic LM2 cells,[1]; recombinant ApoE3 100 μM in cell media,significantly suppressed
same,suppression of metastatic colonization,"[2]; MeWo-LM2 cells pre-incubated 24 hours at 100 μg/mL before injection, NOD-SCID mice",over 300 fold
CC(CCOc1cccc(CC(=O)O)c1)N(Cc1cccc(C(F)(F)F)c1Cl)CC(c1ccccc1)c1ccccc1 (centres unmarked) [SB742881 25],"inhibition of cancer progression phenotypes (cell invasion, endothelial recruitment)","[1]; MeWo cells, 1 μM for 72 hours, compared with lower potency LXR agonists",more effective
